In PubChem BioAssay (NCI):
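Protocol summary: plate cells (96-well), add compound at 5 concentrations, incubate 48 h, interpolate endpoints linearly. Abbreviation: GI50, concentration required for 50% inhibition of growth. TGI denotes the concentration required for complete inhibition of growth.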

Legend:
Assay in all cases: DTP human tumour cell line panel, 48 h
[1] = system: BT-549 breast
[2] = system: 786-0 renal
[3] = system: HS 578T breast
[4] = system: HOP-62 NSCLC
[5] = system: MDA-MB-231 breast
[6] = system: SN12C renal
[7] = system: HOP-92 NSCLC
[8] = system: SK-MEL-28 melanoma
[9] = system: HT29 colon
[10] = system: NCI-H23 lung
[11] = system: HCT-116 colon
[12] = system: MOLT-4 leukemia
[13] = system: M14 melanoma
[14] = system: IGROV1 ovarian
[15] = system: K-562 leukemia
[16] = system: RPMI-8226 leukemia
[17] = system: SNB-19 CNS
[18] = system: DU-145 prostate
[19] = system: SF-268 CNS
[20] = system: OVCAR-8 ovarian
[21] = system: LOX IMVI melanoma
[22] = system: EKVX NSCLC
[23] = system: A498 renal
[24] = system: SF-295 CNS
[25] = system: MCF7 breast
[26] = system: MDA-MB-468 breast
[27] = system: UACC-257 melanoma
[28] = system: RXF 393 renal
[29] = system: MALME-3M melanoma
[30] = system: CAKI-1 renal
[31] = system: SW-620 colon
[32] = system: NCI-H522 lung
[33] = system: CCRF-CEM leukemia
[34] = system: OVCAR-4 ovarian
[35] = system: A549 NSCLC
[36] = system: OVCAR-5 ovarian
[37] = system: SR leukemia
[38] = system: SK-MEL-5 melanoma
[39] = system: HCC-2998 colon
[40] = system: NCI-H460 lung
[41] = system: SNB-75 CNS
[42] = system: TK-10 renal
[43] = system: OVCAR-3 ovarian
[44] = system: U251 CNS
[45] = system: SF-539 CNS
[46] = system: HL-60(TB) leukemia
[47] = system: ACHN renal
[48] = system: T-47D breast
[49] = system: PC-3 prostate
[50] = system: NCI-H226 lung
[51] = system: HCT-15 colon
[52] = system: UACC-62 melanoma
[53] = system: COLO 205 colon
[54] = system: MDA-MB-435
[55] = system: SK-OV-3 ovarian
[56] = system: KM12 colon
[57] = system: UO-31 renal

## COc1ccc(N2N=C(c3ccc4c(c3)OCO4)CC2c2cccc(NC(=O)CCNS(=O)(=O)c3ccc(Cl)cc3)c2)cc1 (centres undefined)
[1]
  GI50: 3.03 µM
  TGI: 20.3 µM
[2]
  GI50: 18.8 µM
  TGI: > 100 µM
[3]
  GI50: 10.6 µM
  TGI: > 100 µM
[4]
  GI50: 63.4 µM
  TGI: > 100 µM
[5]
  GI50: 8.11 µM
  TGI: 96 µM
[6]
  GI50: 14.4 µM
  TGI: > 100 µM
[7]
  GI50: 8.13 µM
  TGI: 76.8 µM
[8]
  GI50: 7.37 µM
  TGI: > 100 µM
[9]
  GI50: 7.96 µM
  TGI: > 100 µM
[10]
  GI50: 22.6 µM
  TGI: > 100 µM
[11]
  GI50: 9.05 µM
  TGI: > 100 µM
[12]
  GI50: 4.71 µM
  TGI: > 100 µM
[13]
  GI50: 9.12 µM
  TGI: > 100 µM
[14]
  GI50: 39.8 µM
  TGI: > 100 µM
[15]
  GI50: 3.97 µM
  TGI: > 100 µM
[16]
  GI50: 6.44 µM
  TGI: > 100 µM
[17]
  GI50: 16.4 µM
  TGI: > 100 µM
[18]
  GI50: 13.6 µM
  TGI: > 100 µM
[19]
  GI50: 11.6 µM
  TGI: > 100 µM
[20]
  GI50: 82.8 µM
  TGI: > 100 µM
[21]
  GI50: 12.1 µM
  TGI: > 100 µM
[22]
  GI50: 4.36 µM
  TGI: > 100 µM
[23]
  GI50: 20.6 µM
  TGI: 48.1 µM
[24]
  GI50: 5.22 µM
  TGI: 72.2 µM
[25]
  GI50: 4.21 µM
  TGI: > 100 µM
[26]
  GI50: 7.03 µM
  TGI: > 100 µM
[27]
  GI50: 77.1 µM
  TGI: > 100 µM
[28]
  GI50: 4.98 µM
  TGI: > 100 µM
[29]
  GI50: 5.42 µM
  TGI: > 100 µM
[30]
  GI50: 8.88 µM
  TGI: > 100 µM
[31]
  GI50: 41.1 µM
  TGI: > 100 µM
[32]
  GI50: 2.73 µM
  TGI: 7.92 µM
[33]
  GI50: 5.4 µM
  TGI: > 100 µM
[34]
  GI50: 19.1 µM
  TGI: > 100 µM
[35]
  GI50: 42.4 µM
  TGI: > 100 µM
[36]
  GI50: 51.6 µM
  TGI: > 100 µM
[37]
  GI50: 4.68 µM
  TGI: > 100 µM
[38]
  GI50: 22.8 µM
  TGI: > 100 µM
[39]
  GI50: 8.75 µM
  TGI: > 100 µM
[40]
  GI50: 11.3 µM
  TGI: > 100 µM
[41]
  GI50: 9.46 µM
  TGI: > 100 µM
[42]
  GI50: 38.6 µM
  TGI: > 100 µM
[43]
  GI50: 47.6 µM
  TGI: > 100 µM
[44]
  GI50: 20.5 µM
  TGI: > 100 µM
[45]
  GI50: 17.5 µM
  TGI: > 100 µM
[46]
  GI50: 25.7 µM
  TGI: > 100 µM
[47]
  GI50: 11.6 µM
  TGI: > 100 µM
[48]
  GI50: 7.96 µM
  TGI: > 100 µM
[49]
  GI50: 4.61 µM
  TGI: > 100 µM
[50]
  GI50: 18 µM
  TGI: > 100 µM
[51]
  GI50: 7.25 µM
  TGI: > 100 µM
[52]
  GI50: 20.4 µM
  TGI: > 100 µM
[53]
  GI50: 25.1 µM
  TGI: > 100 µM
[54]
  GI50: 14.3 µM
  TGI: > 100 µM
[55]
  GI50: 54.7 µM
  TGI: > 100 µM
[56]
  GI50: 12 µM
  TGI: > 100 µM
[57]
  GI50: 15.6 µM
  TGI: > 100 µM
